Data from patent US8193372B2, “Phosphothiophene and phosphothiazole HCV polymerase inhibitors” (Idenix Pharmaceuticals, Inc., priority 2009, dated 2012).

Assays:
[1] = test system: HCV Con1 subgenomic replicon of genotype 1b (GS4.1 cells); assay: microbe, parasite or virus in culture; assay type: cell-based, HCV genotype 1b; settings: Hepatitis C virus; for EC50: 72 h
in vitro = settings: human

SMILES | IC50 [1] [µM] | EC50 [1] [µM] | CC50 (in vitro) [µM]
CCOP(=O)(Nc1cc(-c2ccc(F)cc2)sc1C(=O)O)c1ccc(C)cc1C (stereo not shown) [Compound 22, 2-Thiophenecarboxylic acid, 3-N-[(2,4-dimethyl-phenyl)-phosphonamidateethyl ester]-5-(4-fluorophenyl)] | 0.1 to 8.3 | 0.1 to 8.3 | > 8.3
CCOP(=O)(Nc1cc(-c2ccc(F)cc2)sc1C(=O)O)c1ccc(Cl)cc1Cl (stereo not shown) [Compound 23] | 0.1 to 8.3 | > 8.3 | > 8.3
COP(=O)(Nc1cc(-c2ccccc2)sc1C(=O)O)c1ccccc1 (stereo not shown) [Compound 25, 2-Thiophenecarboxylic acid, 3-N-(phenyl-phosphonamidatemethyl ester)-5-phenyl] | > 8.3 | > 8.3 | > 8.3
COP(=O)(Nc1cc(-c2ccc(-c3cc4ncccn4n3)cc2)sc1C(=O)O)c1ccc(C)cc1C (stereo not shown) [Compound 26] | < 0.1 | < 0.1 | > 8.3
COP(=O)(Nc1cc(-c2ccccc2)sc1C(=O)O)c1ccc(C)cc1C (stereo not shown) [Compound 27, 2-Thiophenecarboxylic acid, 3-N-[(2,4-dimethyl-phenyl)-phosphonamidatemethyl ester]-5-phenyl] | < 0.1 | 0.1 to 8.3 | > 8.3
CCOP(=O)(Nc1cc(-c2ccccc2)sc1C(=O)O)c1ccc(Cl)cc1Cl (stereo not shown) [Compound 28, 2-Thiophenecarboxylic acid, 3-N-[(2,4-dichlorophenyl)-phosphonamidateethyl ester]-5-phenyl] | 0.1 to 8.3 | > 8.3 | > 8.3
CCOP(=O)(Nc1cc(-c2ccc(C#N)cc2)sc1C(=O)O)c1ccc(Cl)cc1Cl (stereo not shown) [Compound 29, 2-Thiophenecarboxylic acid, 3-N-[(2,4-dichlorophenyl)-phosphonamidateethyl ester]-5-(4-cyanophenyl)] | – | > 8.3 | > 8.3
CCOP(=O)(c1ccc(C)cc1C)N(c1cc(-c2ccc(F)cc2)sc1C(=O)O)C(C)C (stereo not shown) [Compound 33, 2-Thiophenecarboxylic acid, 3-N-isopropyl-N-[(2,4-dimethyl-phenyl)-phosphonamidateethyl ester]-5-(4-fluorophenyl)] | 0.1 to 8.3 | 0.1 to 8.3 | > 8.3
COP(=O)(Nc1cc(-c2ccc(Cl)cc2F)sc1C(=O)O)c1ccc(C)cc1C (stereo not shown) [Compound 79] | < 0.1 | 0.1 to 8.3 | > 8.3
COP(=O)(Nc1cc(-c2ccccc2F)sc1C(=O)O)c1ccc(C)cc1C (stereo not shown) [Compound 80] | 0.1 to 8.3 | > 8.3 | > 8.3
COc1ccncc1-c1cc(NP(=O)(OC)c2ccc(C)cc2C)c(C(=O)O)s1 (stereo not shown) [Compound 82] | 0.1 to 8.3 | 0.1 to 8.3 | > 8.3
COP(=O)(Nc1cc(-c2ccc(-c3cc4ncccc4o3)cc2)sc1C(=O)O)C1CC=C(C)CC1 (stereo not shown) [Compound 83] | < 0.1 | 0.1 to 8.3 | > 8.3
CCCOP(=O)(Nc1cc(-c2ccc(Cl)cc2)sc1C(=O)O)c1ccc(C)cc1C (stereo not shown) [Compound 87] | 0.1 to 8.3 | 0.1 to 8.3 | > 8.3
COP(=O)(Nc1cc(-c2cccc(F)c2)sc1C(=O)O)c1ccc(C)cc1C (stereo not shown) [Compound 88] | 0.1 to 8.3 | 0.1 to 8.3 | > 8.3
Cc1ccc(P(=O)(Nc2cc(-c3ccc(Cl)cc3)sc2C(=O)O)OC(C)C)c(C)c1 (stereo not shown) [Compound 89] | 0.1 to 8.3 | 0.1 to 8.3 | > 8.3
COP(=O)(Nc1cc(-c2cc3ccccc3o2)sc1C(=O)O)c1ccc(C)cc1C (stereo not shown) [Compound 96] | < 0.1 | 0.1 to 8.3 | > 8.3
COP(=O)(Nc1cc(-c2cc3ccccc3s2)sc1C(=O)O)c1ccc(C)cc1C (stereo not shown) [Compound 97] | < 0.1 | 0.1 to 8.3 | > 8.3
COP(=O)(Nc1cc(-c2cccs2)sc1C(=O)O)c1ccc(C)cc1C (stereo not shown) [Compound 98] | 0.1 to 8.3 | 0.1 to 8.3 | > 8.3
COP(=O)(Nc1cc(-c2cccnc2)sc1C(=O)O)c1ccc(C)cc1C (stereo not shown) [Compound 99] | 0.1 to 8.3 | > 8.3 | > 8.3
COP(=O)(Nc1cc(-c2ccc(-c3cc4nc(C)cc(N)n4n3)cc2)sc1C(=O)O)c1ccc(C)cc1C (stereo not shown) [Compound 100] | < 0.1 | < 0.1 | > 8.3
COP(=O)(Nc1cc(-c2ccc(C#Cc3cncn3C)cc2)sc1C(=O)O)c1ccc(C)cc1C (stereo not shown) [Compound 101] | < 0.1 | 0.1 to 8.3 | > 8.3
COP(=O)(Nc1cc(-c2ccc(C#CC3CCCC3)cc2)sc1C(=O)O)c1ccc(C)cc1C (stereo not shown) [Compound 102] | 0.1 to 8.3 | > 8.3 | > 8.3
COP(=O)(Nc1cc(-c2ccc(C#Cc3ccsc3)cc2)sc1C(=O)O)c1ccc(C)cc1C (stereo not shown) [Compound 103] | < 0.1 | < 0.1 | > 8.3
COP(=O)(Nc1cc(-c2ccc(C#CCC(C)C)cc2)sc1C(=O)O)c1ccc(C)cc1C (stereo not shown) [Compound 104] | 0.1 to 8.3 | > 8.3 | > 8.3
COP(=O)(Nc1cc(-c2ccc(-c3cc4nc(C)ccn4n3)cc2)sc1C(=O)O)c1ccc(C)cc1C (stereo not shown) [Compound 105] | < 0.1 | < 0.1 | > 8.3
C#CCOP(=O)(Nc1cc(-c2ccc(Cl)cc2)sc1C(=O)O)c1ccc(C)cc1C (stereo not shown) [Compound 106] | 0.1 to 8.3 | 0.1 to 8.3 | > 8.3

SMILES | IC50 [1] [µM] | EC50 [1] [µM] | CC50 (in vitro) [µM]
CCOC(=O)OC(C)N(c1cc(-c2ccc(Cl)cc2)sc1C(=O)OC(C)OC(=O)OC)P(=O)(OC)c1ccc(C)cc1C (stereo not shown) [Compound 108] | > 8.3 | 0.1 to 8.3 | > 8.3
CCOP(=O)(Nc1cc(-c2ccc(Cl)cc2)sc1C(=O)O)C1CCC(C)CC1 (stereo not shown) [Compound 110] | 0.1 to 8.3 | > 8.3 | > 8.3
COP(=O)(Nc1cc(-c2ccc(Cl)cc2)sc1C(N)=O)c1ccc(C)cc1C (stereo not shown) [Compound 111] | > 8.3 | > 8.3 | > 8.3
COP(=O)(Nc1cc(-c2ccc(-c3cc4ncccn4n3)cc2)sc1C(=O)OCc1ccccc1)c1ccc(C)cc1C (stereo not shown) [Compound 112] | 0.1 to 8.3 | 0.1 to 8.3 | > 8.3
COP(=O)(c1ccc(C)cc1C)N(C)c1cc(-c2ccc(Cl)cc2)sc1C(=O)O (stereo not shown) [Compound 113] | < 0.1 | 0.1 to 8.3 | > 8.3
COP(=O)(Nc1cc(-c2ccc(NC(=O)c3cscn3)cc2)sc1C(=O)O)c1ccc(C)cc1C (stereo not shown) [Compound 115] | < 0.1 | < 0.1 | > 8.3
COP(=O)(Nc1cc(I)sc1C(=O)O)c1ccc(C)cc1C (stereo not shown) [Compound 116] | 0.1 to 8.3 | > 8.3 | > 8.3
CCOP(=O)(Nc1cc(-c2ccc(Cl)cc2)sc1C(=O)O)C1CC=C(C)CC1 (stereo not shown) [Compound 117] | 0.1 to 8.3 | > 8.3 | > 8.3
COP(=O)(Nc1cc(-c2ccc(C#CC3CC3)cc2)sc1C(=O)O)c1ccc(C)cc1C (stereo not shown) [Compound 118] | < 0.1 | 0.1 to 8.3 | > 8.3
COP(=O)(Nc1cc(-c2ccc(-c3cc4ncccc4o3)cc2)sc1C(=O)O)c1ccc(Cl)cc1F (stereo not shown) [Compound 119] | < 0.1 | < 0.1 | > 8.3
COP(=O)(Nc1cc(-c2ccc(-c3cccc([N+](=O)[O-])c3)cc2)sc1C(=O)O)c1ccc(C)cc1C (stereo not shown) [Compound 120] | 0.1 to 8.3 | > 8.3 | > 8.3
COP(=O)(Nc1cc(-c2ccc(-c3cccc4ncccc34)cc2)sc1C(=O)O)c1ccc(C)cc1C (stereo not shown) [Compound 121] | < 0.1 | 0.1 to 8.3 | > 8.3
COP(=O)(Nc1cc(-c2ccc(-c3ccc(OCc4ccccc4)nc3)cc2)sc1C(=O)O)c1ccc(C)cc1C (stereo not shown) [Compound 122] | 0.1 to 8.3 | > 8.3 | > 8.3
COc1cc(-c2ccc(-c3cc(NP(=O)(OC)c4ccc(C)cc4C)c(C(=O)O)s3)cc2)cc(OC)c1OC (stereo not shown) [Compound 123] | 0.1 to 8.3 | > 8.3 | > 8.3
COP(=O)(Nc1cc(-c2ccc(-c3ccccc3F)cc2)sc1C(=O)O)c1ccc(C)cc1C (stereo not shown) [Compound 124] | 0.1 to 8.3 | 0.1 to 8.3 | > 8.3
COP(=O)(Nc1cc(-c2ccc(-c3cc4ccccc4o3)cc2)sc1C(=O)O)c1ccc(C)cc1C (stereo not shown) [Compound 125] | < 0.1 | < 0.1 | > 8.3
COP(=O)(Nc1cc(-c2ccc(N)cc2)sc1C(=O)O)c1ccc(C)cc1C (stereo not shown) [Compound 126] | 0.1 to 8.3 | > 8.3 | > 8.3
COP(=O)(Nc1cc(-c2ccc([N+](=O)[O-])cc2)sc1C(=O)O)c1ccc(C)cc1C (stereo not shown) [Compound 127] | < 0.1 | 0.1 to 8.3 | > 8.3
COP(=O)(Nc1cc(-c2ccc(-c3c(C)noc3C)cc2)sc1C(=O)O)c1ccc(C)cc1C (stereo not shown) [Compound 128] | 0.1 to 8.3 | > 8.3 | > 8.3
COP(=O)(Nc1cc(-c2ccc(-c3ccc(C(F)(F)F)cc3)cc2)sc1C(=O)O)c1ccc(C)cc1C (stereo not shown) [Compound 129] | < 0.1 | 0.1 to 8.3 | > 8.3
COP(=O)(Nc1cc(-c2ccc(I)cc2)sc1C(=O)O)c1ccc(C)cc1C (stereo not shown) [Compound 132] | 0.1 to 8.3 | – | > 8.3
COP(=O)(Nc1cc(-c2ccc(Cl)cc2)sc1C(=O)O)c1ccc(Cl)cc1F (stereo not shown) [Compound 133] | 0.1 to 8.3 | 0.1 to 8.3 | > 8.3
COP(=O)(Nc1cc(-c2ccc(Cl)cc2)sc1C(=O)O)c1ccc(Cl)cc1C (stereo not shown) [Compound 134] | < 0.1 | 0.1 to 8.3 | > 8.3
CCOP(=O)(Nc1cc(-c2ccc(Cl)cc2)sc1C(=O)O)c1ccc(Cl)cc1C (stereo not shown) [Compound 136] | < 0.1 | 0.1 to 8.3 | > 8.3
COP(=O)(c1ccc(C)cc1C)N(C)c1cc(-c2ccc(-c3cc4ncccn4n3)cc2)sc1C(=O)O (stereo not shown) [Compound 138] | < 0.1 | < 0.1 | > 8.3
